Data reported in patent publication US20260317324A1, “BIFUNCTIONAL COMPOUNDS FOR DEGRADING BRAF VIA UBIQUITIN PROTEOSOME PATHWAY” (Nurix Therapeutics, Inc., priority 2023, published 2026).

Tests used:
Format in all cases: cell-based
[1] = target: T1, BRAF G469A (Homo sapiens, UniProt P15056, G469A); assay: BRAF HiBiT degradation assay, C-terminal HiBiT-tagged BRAF G469A overexpressed in HCT-116 BRAF−/− cells (clone 34), Nano-Glo HiBiT Lytic assay
T1 construct: Horizon Discovery (HCT-116 BRAF−/− cells); host or cells: HCT-116 BRAF−/− cells, clone 34, lentiviral transduction
Procedure, shortened: (§1)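 HCT-116 BRAF−/− cells stably expressing the tagged mutant were seeded at 3,000 cells/well and grown 24 h at 37 °C before an 11-point half-log series from 1 μM to 0.01 nM, run in duplicate at 0.2% DMSO. Lytic HiBiT luminescence gave % protein remaining versus DMSO controls; DC50 was the fitted concentration at 50%.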

[2] = target: T2, BRAF D594G (Homo sapiens, UniProt P15056, D594G); assay: BRAF HiBiT degradation assay, C-terminal HiBiT-tagged BRAF D594G overexpressed in HCT-116 BRAF−/− cells (clone 63), Nano-Glo HiBiT Lytic assay
T2 construct: Horizon Discovery (HCT-116 BRAF−/− cells); host or cells: HCT-116 BRAF−/− cells, clone 63, lentiviral transduction
Procedure, shortened: as §1

[3] = target: T3, BRAF V600E (Homo sapiens, UniProt P15056, V600E); assay: BRAF HiBiT degradation assay, C-terminal HiBiT-tagged BRAF V600E A375 cells (clone 1F10), Nano-Glo HiBiT Lytic assay; details: for Dmax: A-375
T3 construct: endogenous C-terminal HiBiT fusion tag on BRAF V600E allele; endogenous in cells; host or cells: A375 clone 1F10 (CRISPR-Cas9 knock-in of the HiBiT tag; parental A375 from ATCC)
Procedure, shortened: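 A375 cells with CRISPR knock-in C-terminal HiBiT on endogenous BRAF V600E (clone 1F10) were seeded and cultured 24 h at 37 °C, then dosed with an 11-point half-log series (1 μM to 0.01 nM, duplicate, 0.2% DMSO). Lytic HiBiT luminescence gave % protein remaining; DC50 was the fitted concentration at 50%.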

[4] = target: T4, BRAF G466V (Homo sapiens, UniProt P15056, G466V); assay: BRAF HiBiT degradation assay, C-terminal HiBiT-tagged BRAF G466V overexpressed in HCT-116 BRAF−/− cells (clone 8), Nano-Glo HiBiT Lytic assay
T4 construct: Horizon Discovery (HCT-116 BRAF−/− cells); host or cells: HCT-116 BRAF−/− cells, clone 8, lentiviral transduction
Procedure, shortened: as §1

[5] = Class 2, BRAF G469A, DC50 at 50%: fitted conc. at Y=50
[6] = HCT-116, Class 2, BRAF G469A, percentage protein degraded at maximal compound effect relative to DMSO
[7] = BRAF D594G, DC50 at 50%: fitted conc. at Y=50
[8] = HCT-116, BRAF D594G, percentage protein degraded at maximal compound effect relative to DMSO
[9] = A375 (BRAF V600E), DC50 at 50%: fitted conc. at Y=50
[10] = A375 (BRAF V600E), percentage protein degraded at maximal compound effect relative to DMSO
[11] = BRAF G466V, DC50 at 50%: fitted conc. at Y=50
[12] = HCT-116, BRAF G466V, percentage protein degraded at maximal compound effect relative to DMSO

T3 sequence (P15056 whole entry V600E, the tested form may be a part): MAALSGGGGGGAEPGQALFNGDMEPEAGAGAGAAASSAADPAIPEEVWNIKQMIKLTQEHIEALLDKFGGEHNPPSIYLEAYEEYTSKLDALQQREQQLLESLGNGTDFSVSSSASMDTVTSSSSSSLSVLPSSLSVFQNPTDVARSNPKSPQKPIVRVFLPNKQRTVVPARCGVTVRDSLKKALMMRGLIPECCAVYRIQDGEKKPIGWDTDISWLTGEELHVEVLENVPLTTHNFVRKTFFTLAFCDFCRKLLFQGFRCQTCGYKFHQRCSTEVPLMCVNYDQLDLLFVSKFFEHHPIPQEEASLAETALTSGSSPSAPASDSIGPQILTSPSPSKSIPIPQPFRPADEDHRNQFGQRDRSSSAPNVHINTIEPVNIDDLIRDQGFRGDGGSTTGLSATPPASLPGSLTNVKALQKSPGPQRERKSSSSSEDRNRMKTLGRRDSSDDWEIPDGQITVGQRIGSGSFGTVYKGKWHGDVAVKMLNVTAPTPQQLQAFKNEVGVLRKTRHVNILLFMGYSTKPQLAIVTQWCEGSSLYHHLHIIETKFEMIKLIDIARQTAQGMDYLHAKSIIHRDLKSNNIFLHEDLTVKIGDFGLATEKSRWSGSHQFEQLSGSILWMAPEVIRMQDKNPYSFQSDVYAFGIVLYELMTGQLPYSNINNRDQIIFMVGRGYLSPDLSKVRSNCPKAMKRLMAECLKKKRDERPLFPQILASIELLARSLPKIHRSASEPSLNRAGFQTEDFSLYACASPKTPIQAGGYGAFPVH
T1 sequence (P15056 whole entry G469A): as the sequence (P15056 whole entry V600E, the tested form may be a part) above, with G469A, E600V counted along it
T4 sequence (P15056 whole entry G466V): as the sequence (P15056 whole entry V600E, the tested form may be a part) above, with G466V, E600V counted along it
T2 sequence (P15056 whole entry D594G): as the sequence (P15056 whole entry V600E, the tested form may be a part) above, with D594G, E600V counted along it

SMILES	DC50 ([1]; BRAF G469A (Class 2), HCT-116 BRAF−/− cells, DC50 at 50% degradation) [nM]	Dmax ([1]; BRAF G469A (Class 2), HCT-116 BRAF−/− cells, observed Dmax relative to DMSO control) [%]	DC50 ([2]; BRAF D594G (Class 3), HCT-116 BRAF−/− cells, DC50 at 50% degradation) [nM]	Dmax ([2]; BRAF D594G (Class 3), HCT-116 BRAF−/− cells, observed Dmax relative to DMSO control) [%]	DC50 ([3]; A375 (BRAF V600E, Class 1), DC50 at 50% degradation) [nM]	Dmax ([3]; A375 (BRAF V600E, Class 1), observed Dmax, % protein degraded relative to DMSO control) [%]	DC50 ([4]; BRAF G466V (Class 3), HCT-116 BRAF−/− cells, DC50 at 50% degradation) [nM]	Dmax ([4]; BRAF G466V (Class 3), HCT-116 BRAF−/− cells, observed Dmax relative to DMSO control) [%]	DC50 [1, 5] [nM]	Dmax [1, 6] [%]	DC50 [2, 7] [nM]	Dmax [2, 8] [%]	DC50 [3, 9] [nM]	Dmax [3, 10] [%]	DC50 [4, 11] [nM]	Dmax [4, 12] [%]
CCCS(=O)(=O)Nc1cccc(-c2nc(C(C)(C)C)sc2-c2ccnc(Nc3ccc(N4CCN(CC5CCN(c6ccc(C7CCC(=O)NC7=O)cn6)CC5)CC4)c(F)c3)n2)c1F (racemic) [Compound 45, Rac-N-[3-(2-tert-butyl-5-{2-[(4-{4-[(1-{5-[(3R)-2,6-dioxopiperidin-3-yl]pyridin-2-yl}piperidin-4-yl)methyl]piperazin-1-yl}-3-fluorophenyl)amino]pyrimidin-4-yl}-1,3-thiazol-4-yl)-2-fluorophenyl]propane-1-sulfonamide]									> 500	30 to 70	10 to 50	30 to 70	10 to 50	> 70	< 10	> 70
CCN(C)S(=O)(=O)Nc1cccc(-c2nc(C)sc2-c2ccnc(Nc3ccc(N4CCN(CC5CCN(c6ccc([C@H]7CCC(=O)NC7=O)cc6)CC5)CC4)cn3)n2)c1F [Compound 41, (3R)-3-{4-[4-({4-[6-({4-[4-(3-{[ethyl(methyl)sulfamoyl]amino}-2-fluorophenyl)-2-methyl-1,3-thiazol-5-yl]pyrimidin-2-yl}amino)pyridin-3-yl]piperazin-1-yl}methyl)piperidin-1-yl]phenyl}piperidine-2,6-dione]									10 to 50	30 to 70	10 to 50	30 to 70	< 10	> 70	50 to 500	30 to 70
CCCS(=O)(=O)Nc1cccc(-c2cn(-c3ccc(C4CCN(CC5CCN(c6ccc(C7CCC(=O)NC7=O)cc6)CC5)CC4)cc3)nc2-c2ccncc2)c1F (racemic) [Compound 25, Rac-N-{3-[1-(4-{1-[(1-{4-[(3R)-2,6-dioxopiperidin-3-yl]phenyl}piperidin-4-yl)methyl]piperidin-4-yl}phenyl)-3-(pyridin-4-yl)-1H-pyrazol-4-yl]-2-fluorophenyl}propane-1-sulfonamide]									> 500	< 30	> 500	30 to 70	10 to 50	> 70	10 to 50	30 to 70

The next lines start with the values.

DC50 ([1]; BRAF G469A (Class 2), HCT-116 BRAF−/− cells, DC50 at 50% degradation) [nM]	Dmax ([1]; BRAF G469A (Class 2), HCT-116 BRAF−/− cells, observed Dmax relative to DMSO control) [%]	DC50 ([2]; BRAF D594G (Class 3), HCT-116 BRAF−/− cells, DC50 at 50% degradation) [nM]	Dmax ([2]; BRAF D594G (Class 3), HCT-116 BRAF−/− cells, observed Dmax relative to DMSO control) [%]	DC50 ([3]; A375 (BRAF V600E, Class 1), DC50 at 50% degradation) [nM]	Dmax ([3]; A375 (BRAF V600E, Class 1), observed Dmax, % protein degraded relative to DMSO control) [%]	DC50 ([4]; BRAF G466V (Class 3), HCT-116 BRAF−/− cells, DC50 at 50% degradation) [nM]	Dmax ([4]; BRAF G466V (Class 3), HCT-116 BRAF−/− cells, observed Dmax relative to DMSO control) [%]	DC50 [1, 5] [nM]	Dmax [1, 6] [%]	DC50 [2, 7] [nM]	Dmax [2, 8] [%]	DC50 [3, 9] [nM]	Dmax [3, 10] [%]	DC50 [4, 11] [nM]	Dmax [4, 12] [%]	SMILES
< 10	> 70	< 10	30 to 70	< 10	> 70	< 10	> 70									CCCS(=O)(=O)Nc1cc(Cl)cc(-c2cn(-c3ccc(N4CCN(CC5CCN(c6ccc(C7CCC(=O)NC7=O)cn6)CC5)[C@H](C)C4)cc3)nc2-c2ccncc2)c1F (mixture of isomers) [Compound 276, N-[5-chloro-3-(1-{4-[(3R)-4-[(1-{5-[(3RS)-2,6-dioxopiperidin-3-yl]pyridin-2-yl}piperidin-4-yl)methyl]-3-methylpiperazin-1-yl]phenyl}-3-(pyridin-4-yl)-1H-pyrazol-4-yl)-2-fluorophenyl]propane-1-sulfonamide]
								> 500	30 to 70	10 to 50	30 to 70	50 to 500	> 70	10 to 50	30 to 70	CCCS(=O)(=O)Nc1cccc(-c2cn(-c3ccc(N4CCN(CC5CCN(c6ccc(C7CCC(=O)NC7=O)cn6)CC5)CC4)nc3)nc2-c2ccncc2)c1F (racemic) [Compound 3, Rac-N-{3-[1-(6-{4-[(1-{5-[(3R)-2,6-dioxopiperidin-3-yl]pyridin-2-yl}piperidin-4-yl)methyl]piperazin-1-yl}pyridin-3-yl)-3-(pyridin-4-yl)-1H-pyrazol-4-yl]-2-fluorophenyl}propane-1-sulfonamide]
								> 500	< 30	< 10	30 to 70	< 10	> 70	> 500	30 to 70	CCCS(=O)(=O)Nc1cccc(-c2nc(C3CCN(C(=O)C4(C)CCN(C(=O)C5CCN(c6ccc(C7CCC(=O)NC7=O)cc6)CC5)CC4)CC3)sc2-c2ccnc(NC(C)C)n2)c1F (racemic) [Compound 179, Rac-N-[3-(2-{1-[1-(1-{4-[(3R)-2,6-dioxopiperidin-3-yl]phenyl}piperidine-4-carbonyl)-4-methylpiperidine-4-carbonyl]piperidin-4-yl}-5-{2-[(propan-2-yl)amino]pyrimidin-4-yl}-1,3-thiazol-4-yl)-2-fluorophenyl]propane-1-sulfonamide]
